Experimental data: ChEMBL document CHEMBL4425168, “Dehydrozingerone Inspired Styryl Hydrazine Thiazole Hybrids as Promising Class of Antimycobacterial Agents” (ACS Med Chem Lett, 2016)
pIC50: −log10 of the molar value. ≈ marks a conversion by molar mass, not a printed value.

Tests used:
[1] = test system: Mycobacterium tuberculosis; test: Antitubercular activity against Mycobacterium tuberculosis H37Rv after 7 days by broth macrodilution assay; format: functional; conditions: 168 h
[2] = test system: Mycobacterium tuberculosis; test: Antitubercular activity against Mycobacterium tuberculosis H37Rv by microplate Alamar blue assay; format: functional
[3] = test system: Mycobacterium tuberculosis; test: Antitubercular activity against Mycobacterium tuberculosis H37Rv assessed as bacterial growth inhibition in aerobic conditions by dual read out fluorescence assay; format: functional
[4] = test system: Mycobacterium tuberculosis; test: Antitubercular activity against Mycobacterium tuberculosis H37Rv assessed as bacterial growth inhibition under aerobic conditions after 5 days by dual read-out fluorescence assay; format: functional, organism-based; conditions: 120 h
[5] = test system: Mycobacterium tuberculosis; test: Antitubercular activity against oxygen-deprived Mycobacterium tuberculosis H37Rv assessed as bacterial growth inhibition preincubated for 10 days under anaerobic conditions followed by incubation under aerobic conditions for 28 hrs by LOR assay; format: functional, organism-based
[6] = test system: Mycobacterium tuberculosis; test: Antitubercular activity against Mycobacterium tuberculosis H37Rv expressing luxABCDE infected in differentiated human THP1 cells assessed as reduction in bacteria infected cells after 72 hrs by luminescence assay; format: functional, organism-based; conditions: THP-1, 72 h
Mycobacterium avium = test: Antibacterial activity against Mycobacterium avium assessed as reduction in bacterial metabolic activity after 5 days by Alamar blue assay; format: functional; conditions: 120 h
[7] = test system: Mycobacterium tuberculosis; test: Antitubercular activity against Mycobacterium tuberculosis H37Rv INH-R2 ATCC 35822 after 5 days; format: functional, organism-based
THP-1 = test: Cytotoxicity in differentiated human THP1 cells assessed as reduction in cell viability after 3 days by CellTiter-Glo assay; format: cell-based; conditions: THP-1, 72 h
[8] = test system: Mycobacterium tuberculosis; test: Bactericidal activity against replicating Mycobacterium tuberculosis H37Rv assessed as reduction in colony forming units incubated for 21 days; format: functional; conditions: 504 h
[9] = test system: Mycobacterium tuberculosis; test: Antitubercular activity against oxygen-deprived Mycobacterium tuberculosis H37Rv assessed as bacterial growth inhibition incubated for 5 days under aerobic conditions by LOR assay; format: functional, organism-based; conditions: 120 h
[10] = test system: Mycobacterium tuberculosis; test: Antitubercular activity against Mycobacterium tuberculosis H37Rv RIF-R2 ATCC 35828 after 5 days; format: functional, organism-based; conditions: H37Rv RIF-R2 ATCC 35828, 120 h
[11] = test system: Mycobacteroides abscessus; test: Antibacterial activity against Mycobacterium abscessus assessed as bacterial growth inhibition after 3 days by MABA method; format: functional; conditions: 72 h
[12] = test system: Mycobacterium tuberculosis; test: Antitubercular activity against Mycobacterium tuberculosis H37Rv by radiometric assay; format: functional
[13] = Mycobacterium tuberculosis, H37Rv INH-R2 ATCC 35822, 120 h

Structure (SMILES)	MIC [4]	pIC50 [7, 13]	IC90 [7, 13]	MIC [7, 13]	pIC50 [10]	IC90 [10]	MIC [10]	other results
COC(=O)c1nc(N)sc1Cc1ccccc1								MIC [1]: 0.06 µg/mL (≈ 0.242 µM)
CC(=O)c1nc(/C=C/c2ccccc2)c2ncn(Cc3ccccc3)c2n1								MIC [2]: 6.25 µM (≈ 2.22 µg/mL)
COc1ccc(-c2csc(N/N=C/c3ccc4c(c3)c3ccccc3n4C)n2)cc1OC								MIC [3]: 21 µM (≈ 9.29 µg/mL)
COc1ccc(/C=C/C(C)=N/Nc2nc(-c3cc(F)ccc3O)cs2)cc1OC	1.5 to 200 µM (≈ 0.62 to 82.7 µg/mL)							
COc1ccc(/C=C/C(C)=N/Nc2nc(-c3ccc(N)cc3)cs2)cc1OC	1.5 to 200 µM (≈ 0.592 to 78.9 µg/mL)	6.42	1.7 µM	1.5 µM (≈ 0.592 µg/mL)	6.12	9.2 µM	6.3 µM (≈ 2.49 µg/mL)	pIC50 [5]: 7.20; MIC [5]: 46 µM (≈ 18.1 µg/mL); pIC50 [6]: > 7.01; MIC (Mycobacterium avium): 100 µM (≈ 39.5 µg/mL); pIC50 (THP-1): 4.96; MBC [8]: 12 µM (≈ 4.73 µg/mL); pIC50 [9]: 7.01; MIC [9]: 0.28 µM (≈ 0.11 µg/mL)
COc1ccc(/C=C/C(C)=N/Nc2nc(-c3ccc(C)cc3)cs2)cc1OC	1.5 to 200 µM (≈ 0.59 to 78.7 µg/mL)							
COc1ccc(/C=C/C(C)=N/Nc2nc(-c3ccc(Cl)c(Cl)c3)cs2)cc1OC	> 200 µM							
COc1ccc(/C=C/C(C)=N/Nc2nc(-c3cccc(C(F)(F)F)c3)cs2)cc1OC	> 200 µM							
COc1ccc(/C=C/C(C)=N/NC(N)=S)cc1OC	1.5 to 200 µM (≈ 0.419 to 55.9 µg/mL)	6.10	2.9 µM	2.5 µM (≈ 0.698 µg/mL)	5.92	5.9 µM	4.8 µM (≈ 1.34 µg/mL)	MIC [11]: > 200 µM; pIC50 [5]: 6.72; MIC [5]: 29 µM (≈ 8.1 µg/mL); pIC50 [6]: > 7.01; MIC (Mycobacterium avium): > 200 µM; pIC50 [4]: 6.01; pIC50 (THP-1): 4.30 to 4.96; MBC [8]: 6 µM (≈ 1.68 µg/mL); pIC50 [9]: 6.82; MIC [9]: 0.5 µM (≈ 0.14 µg/mL)
COc1ccc(/C=C/C(C)=N/Nc2nc(-c3ccc(OC)c(OC)c3)cs2)cc1OC	16 µM (≈ 7.03 µg/mL)	5.15	12 µM	13 µM (≈ 5.71 µg/mL)	4.72	> 200 µM	46 µM (≈ 20.2 µg/mL)	MIC [11]: > 200 µM; MIC (Mycobacterium avium): > 200 µM; pIC50 [4]: 5.13; pIC50 (THP-1): 4.42
COc1ccc(-c2csc(N/N=C(C)/C=C/c3ccc(OC)c(OC)c3)n2)cc1	15 µM (≈ 6.14 µg/mL)	5.10	> 50 µM	12 µM (≈ 4.91 µg/mL)	5.06	> 50 µM	31 µM (≈ 12.7 µg/mL)	MIC [11]: > 200 µM; MIC (Mycobacterium avium): > 200 µM; pIC50 [4]: 5.08; pIC50 (THP-1): 4.30 to 4.96
COc1ccc(/C=C/C(C)=N/Nc2nc(-c3ccccc3O)cs2)cc1OC	40 µM (≈ 15.8 µg/mL)							pIC50 [4]: 4.62
COc1ccc(/C=C/C(C)=N/Nc2nc(-c3ccccc3)cs2)cc1OC	1.5 to 200 µM (≈ 0.569 to 75.9 µg/mL)							
COc1ccc(/C=C/C(C)=N/Nc2nc(-c3c(OC)cccc3OC)cs2)cc1OC	28 µM (≈ 12.3 µg/mL)	5.25	> 25 µM	19 µM (≈ 8.35 µg/mL)	5.00	> 25 µM	41 µM (≈ 18 µg/mL)	MIC [11]: > 100 µM; MIC (Mycobacterium avium): > 100 µM; pIC50 [4]: 5.18; pIC50 (THP-1): 4.30 to 4.96
O=[N+]([O-])c1ccc2nc(-c3ccccc3-c3nnc(/C=C/c4ccccc4)o3)[nH]c2c1								MIC [12]: 12.5 µg/mL (≈ 30.5 µM)
COc1ccc(/C=C/C(C)=N/Nc2nc(-c3ccc(Br)cc3)cs2)cc1OC	> 200 µM							
COc1ccc(/C=C/C(C)=N/Nc2nc(-c3ccc([N+](=O)[O-])cc3)cs2)cc1OC	> 200 µM							
COc1ccc(O)c(-c2csc(N/N=C(C)/C=C/c3ccc(OC)c(OC)c3)n2)c1	88 µM (≈ 37.4 µg/mL)							pIC50 [4]: 4.64
COc1ccc(/C=C/C(C)=N/Nc2nc(-c3cc(Br)ccc3O)cs2)cc1OC	1.5 to 200 µM (≈ 0.712 to 94.9 µg/mL)							
COc1ccc(/C=C/C(C)=N/Nc2nc(-c3ccc(Cl)cc3)cs2)cc1OC	1.5 to 200 µM (≈ 0.621 to 82.8 µg/mL)							
NNC(=O)c1ccncc1 [ISONIAZID]		< 3.70	> 200 µM	> 200 µM	6.27	0.6 µM	0.62 µM (≈ 0.085 µg/mL)	
C[C@H]1COc2c(N3CCN(C)CC3)c(F)cc3c(=O)c(C(=O)O)cn1c23.C[C@H]1COc2c(N3CCN(C)CC3)c(F)cc3c(=O)c(C(=O)O)cn1c23.O [LEVOFLOXACIN]		6.08	1.4 µM	1.4 µM	6.22	1.2 µM	1.1 µM	
CO[C@H]1/C=C/O[C@@]2(C)Oc3c(C)c(O)c4c(O)c(c(/C=N/N5CCN(C)CC5)c(O)c4c3C2=O)NC(=O)/C(C)=C\C=C\[C@H](C)[C@H](O)[C@@H](C)[C@@H](O)[C@@H](C)[C@H](OC(C)=O)[C@@H]1C [RIFAMPIN]	1.5 to 200 µM (≈ 1.23 to 165 µg/mL)	8.33		0.0065 µM (≈ 0.00535 µg/mL)	< 4.30	> 50 µM	> 50 µM	MIC (Mycobacterium avium): 0.1 µM (≈ 0.0823 µg/mL); IC90 [7]: 0.012 µM
